18 compounds from ChEMBL document CHEMBL4196124, “Reverse Hydroxamate Inhibitors of Bone Morphogenetic Protein 1” (ACS Med Chem Lett, 2018) can be followed below.

The target of series [1] is T1, Bone morphogenetic protein 1 (Homo sapiens, UniProt P13497).
T1 sequence (P13497 whole entry): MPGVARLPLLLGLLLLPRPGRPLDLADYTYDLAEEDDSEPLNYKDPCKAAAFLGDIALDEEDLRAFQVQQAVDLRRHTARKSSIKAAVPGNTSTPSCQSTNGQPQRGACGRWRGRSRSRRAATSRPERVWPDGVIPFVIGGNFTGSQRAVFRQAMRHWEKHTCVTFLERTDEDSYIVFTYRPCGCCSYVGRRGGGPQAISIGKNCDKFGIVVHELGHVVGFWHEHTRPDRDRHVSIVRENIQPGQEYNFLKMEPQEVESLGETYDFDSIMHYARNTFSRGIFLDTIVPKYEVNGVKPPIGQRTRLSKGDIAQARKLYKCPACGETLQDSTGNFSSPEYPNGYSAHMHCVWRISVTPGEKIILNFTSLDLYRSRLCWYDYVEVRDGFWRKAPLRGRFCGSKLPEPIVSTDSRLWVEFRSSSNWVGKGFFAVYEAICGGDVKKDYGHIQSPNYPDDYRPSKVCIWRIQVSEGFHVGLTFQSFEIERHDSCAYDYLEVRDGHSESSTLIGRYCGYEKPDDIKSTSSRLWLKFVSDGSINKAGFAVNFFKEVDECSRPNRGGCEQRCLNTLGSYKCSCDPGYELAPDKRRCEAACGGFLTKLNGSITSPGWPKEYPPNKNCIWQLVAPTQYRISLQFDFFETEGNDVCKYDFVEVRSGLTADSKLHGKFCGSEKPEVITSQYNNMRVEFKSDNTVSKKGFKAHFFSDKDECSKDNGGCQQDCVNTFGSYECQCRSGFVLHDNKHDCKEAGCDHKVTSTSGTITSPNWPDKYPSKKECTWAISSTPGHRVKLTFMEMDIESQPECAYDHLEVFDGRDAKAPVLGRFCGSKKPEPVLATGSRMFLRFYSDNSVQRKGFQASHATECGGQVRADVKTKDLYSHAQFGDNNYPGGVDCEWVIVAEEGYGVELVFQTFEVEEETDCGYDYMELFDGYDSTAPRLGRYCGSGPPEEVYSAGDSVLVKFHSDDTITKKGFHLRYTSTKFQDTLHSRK
Kind of series: Inhibition of recombinant human N-terminal 6His/flag-tagged BMP1 (121 to 721 residues) expressed in CHO cells using ((5-FAM)-ELIDQYDVQRDDSSDGSLED-K(5,6 TAMRA)-CONH2) as substrate preincubated for 10 mins followed by substrate addition measured after 60 mins.

Series [2] deals with Macrophage metalloelastase (Homo sapiens, UniProt P39900). Kind of series: Inhibition of MMP12 (unknown origin).
Series [3] has as its target T2, Bone morphogenetic protein 1 (Homo sapiens) (UniProt P13497).
T2 sequence (whole entry): T1 sequence (P13497 whole entry)
Kind of series: Binding affinity to BMP1 (unknown origin) assessed as association rate constant using ((5-FAM)-ELIDQYDVQRDDSSDGSLED-K(5,6 TAMRA)-CONH2 as substrate by FRET based stopped-flow spectrofluorometric method.

Series [4] deals with T2, Bone morphogenetic protein 1 (Homo sapiens). The series can be described thus: Binding affinity to BMP1 (unknown origin) assessed as dissociation rate constant using ((5-FAM)-ELIDQYDVQRDDSSDGSLED-K(5,6 TAMRA)-CONH2 as substrate preincubated for 0.5 hrs followed by substrate addition measured over 4 hrs by rapid jump dilution method.
Series [5] has the same target. Kind of series: Binding affinity to BMP1 (unknown origin) assessed as half life using ((5-FAM)-ELIDQYDVQRDDSSDGSLED-K(5,6 TAMRA)-CONH2 as substrate preincubated for 0.5 hrs followed by substrate addition measured over 4 hrs by rapid jump dilution method.
Series [6] concerns the target T1, Bone morphogenetic protein 1. The series can be described thus: Binding affinity to BMP1 (unknown origin) using ((5-FAM)-ELIDQYDVQRDDSSDGSLED-K(5,6 TAMRA)-CONH2 as substrate preincubated for 3 hrs followed by substrate addition measured for 120 mins by FRET assay.
Series [7] concerns the target T3, Tolloid-like protein 1 (Homo sapiens, UniProt O43897).
T3 sequence (O43897 whole entry): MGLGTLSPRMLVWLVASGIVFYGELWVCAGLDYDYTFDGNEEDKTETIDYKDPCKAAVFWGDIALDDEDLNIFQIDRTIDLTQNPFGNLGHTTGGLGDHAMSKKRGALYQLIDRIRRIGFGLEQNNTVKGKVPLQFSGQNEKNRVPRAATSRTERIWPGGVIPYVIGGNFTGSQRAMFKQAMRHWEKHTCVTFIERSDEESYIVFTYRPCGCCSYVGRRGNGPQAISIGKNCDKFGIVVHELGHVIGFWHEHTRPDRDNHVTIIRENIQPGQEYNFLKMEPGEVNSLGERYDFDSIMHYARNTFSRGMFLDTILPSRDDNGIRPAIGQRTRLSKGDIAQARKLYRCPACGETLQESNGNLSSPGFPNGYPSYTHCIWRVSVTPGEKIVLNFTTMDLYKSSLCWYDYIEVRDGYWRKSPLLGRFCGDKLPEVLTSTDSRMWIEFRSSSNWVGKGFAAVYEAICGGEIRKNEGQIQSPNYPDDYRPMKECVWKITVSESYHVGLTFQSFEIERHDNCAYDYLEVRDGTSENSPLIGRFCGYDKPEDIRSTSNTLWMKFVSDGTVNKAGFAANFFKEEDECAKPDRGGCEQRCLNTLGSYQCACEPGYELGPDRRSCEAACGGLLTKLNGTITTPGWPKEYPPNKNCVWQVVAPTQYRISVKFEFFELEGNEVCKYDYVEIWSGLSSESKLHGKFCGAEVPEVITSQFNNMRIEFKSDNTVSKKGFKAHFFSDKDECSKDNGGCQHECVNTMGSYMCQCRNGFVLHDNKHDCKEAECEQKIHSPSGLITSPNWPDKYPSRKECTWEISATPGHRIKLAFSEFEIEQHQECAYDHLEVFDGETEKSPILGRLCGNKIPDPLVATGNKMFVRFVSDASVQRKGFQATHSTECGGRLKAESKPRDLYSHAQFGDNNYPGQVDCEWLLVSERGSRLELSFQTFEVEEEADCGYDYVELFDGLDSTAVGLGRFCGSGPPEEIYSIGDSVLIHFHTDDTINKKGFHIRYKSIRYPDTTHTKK
The series can be described thus: Binding affinity to TLL1 (unknown origin) using ((5-FAM)-ELIDQYDVQRDDSSDGSLED-K(5,6 TAMRA)-CONH2 as substrate incubated for 3.5 hrs followed by substrate addition by FRET assay.

For series [8], the target named is T4, Tolloid-like protein 2 (Homo sapiens, UniProt Q9Y6L7).
T4 sequence (Q9Y6L7 whole entry): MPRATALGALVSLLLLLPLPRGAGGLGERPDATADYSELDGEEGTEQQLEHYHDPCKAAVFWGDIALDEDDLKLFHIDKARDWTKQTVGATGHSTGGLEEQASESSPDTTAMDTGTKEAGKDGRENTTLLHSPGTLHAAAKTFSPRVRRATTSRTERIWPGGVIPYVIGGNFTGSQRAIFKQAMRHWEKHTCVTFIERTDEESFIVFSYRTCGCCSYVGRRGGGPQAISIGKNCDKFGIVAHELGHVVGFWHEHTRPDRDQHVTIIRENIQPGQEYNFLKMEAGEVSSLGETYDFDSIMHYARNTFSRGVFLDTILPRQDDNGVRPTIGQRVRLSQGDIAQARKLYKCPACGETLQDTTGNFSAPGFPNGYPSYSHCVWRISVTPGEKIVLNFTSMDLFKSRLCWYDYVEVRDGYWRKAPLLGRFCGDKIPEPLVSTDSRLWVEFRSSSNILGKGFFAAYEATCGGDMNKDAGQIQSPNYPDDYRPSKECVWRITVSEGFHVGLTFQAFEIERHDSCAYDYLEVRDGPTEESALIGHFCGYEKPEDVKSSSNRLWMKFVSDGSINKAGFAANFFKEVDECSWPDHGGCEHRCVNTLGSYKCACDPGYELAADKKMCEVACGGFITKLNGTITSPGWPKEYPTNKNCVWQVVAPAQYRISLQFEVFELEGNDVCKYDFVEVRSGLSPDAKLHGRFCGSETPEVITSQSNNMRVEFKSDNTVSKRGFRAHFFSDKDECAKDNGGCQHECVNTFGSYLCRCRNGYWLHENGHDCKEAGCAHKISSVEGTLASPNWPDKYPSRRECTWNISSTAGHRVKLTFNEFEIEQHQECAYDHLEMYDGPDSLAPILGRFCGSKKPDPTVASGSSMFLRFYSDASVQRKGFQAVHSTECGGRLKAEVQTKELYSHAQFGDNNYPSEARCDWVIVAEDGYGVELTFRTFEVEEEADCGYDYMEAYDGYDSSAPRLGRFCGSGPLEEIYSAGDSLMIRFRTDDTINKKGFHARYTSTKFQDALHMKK
The series can be described thus: Binding affinity to TLL2 (unknown origin) using ((5-FAM)-ELIDQYDVQRDDSSDGSLED-K(5,6 TAMRA)-CONH2 as substrate incubated for 3.5 hrs followed by substrate addition by FRET assay.

Series [9] is described as follows: Mean residence time in sc dosed rat. The series is classed as ADME, organism-based. The conditions noted are these: in vivo.
The nature of series [10]: Mean residence time in sc dosed dog. The series is classed as ADME, organism-based, Canis lupus familiaris. The settings on record: in vivo.
The subject of series [11] is Rattus norvegicus. Kind of series: Dose normalized AUC in subcutaneously dosed rat. The series is classed as ADME, organism-based. The conditions noted are these: in vivo, sc.
The test system of series [12] is Canis familiaris. Kind of series: Dose normalized AUC in subcutaneously dosed dog. The settings on record: in vivo, sc. It counts as ADME, organism-based, Canis lupus familiaris.

Structures are written as SMILES.

Macrophage metalloelastase, sequence (P39900 whole entry): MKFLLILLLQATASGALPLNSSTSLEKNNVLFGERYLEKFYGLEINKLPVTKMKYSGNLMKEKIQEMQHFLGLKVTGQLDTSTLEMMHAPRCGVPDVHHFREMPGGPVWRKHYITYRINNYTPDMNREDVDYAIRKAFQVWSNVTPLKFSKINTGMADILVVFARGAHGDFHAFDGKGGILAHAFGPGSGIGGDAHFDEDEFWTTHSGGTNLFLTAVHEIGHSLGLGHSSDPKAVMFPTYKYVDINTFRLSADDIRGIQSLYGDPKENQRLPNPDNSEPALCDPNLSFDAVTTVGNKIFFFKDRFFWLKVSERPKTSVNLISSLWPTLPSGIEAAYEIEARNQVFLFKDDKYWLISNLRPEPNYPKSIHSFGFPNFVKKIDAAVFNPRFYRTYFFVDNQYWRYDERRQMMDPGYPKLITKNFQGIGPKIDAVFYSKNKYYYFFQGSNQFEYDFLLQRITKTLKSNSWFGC

Regarding `CCCCC[C@@H](C(=O)NCNC(=O)c1ccc(-c2cc(OCC)cc(C(=O)O)c2)o1)[C@@H](CC)N(O)C=O`, the half-maximal inhibitory concentration (IC50) (in general, the concentration needed to halve the response being measured) in series [1] is less than 1 nM.
Turning to `COc1cccc2cc(C(=O)NCNC(=O)CCN(O)C=O)oc12`, the half-maximal inhibitory concentration (IC50) was 6300 nM in [1] and greater than 10000 nM in series [2].
As to `CCCCC[C@H](CN(O)C=O)C(=O)NCNC(=O)c1ccc(-c2cccc(OCC)c2)o1`, in series [1], the IC50 stood at 1 nM.
In the case of `CCCCC[C@H](CN(O)C=O)C(=O)NCNC(=O)c1ccc(-c2cccc(C(=O)O)c2)o1`, the IC50 in series [1] was found to be 8 nM.
With `CCCCC[C@H](CN(O)C=O)C(=O)NCNC(=O)c1cc2cccc(OC)c2o1`, the IC50 was 160 nM in series [1] and 400 nM in series [2].
With `CCCCC[C@@H](C(=O)NCNC(=O)c1ccc(-c2ccc(C(=O)O)c(OCC)c2)o1)[C@@H](CC)N(O)C=O`, the 50% inhibitory concentration (IC50) in series [1] is less than 1 nM.
Regarding `COc1cccc2cc(C(=O)NCNC(=O)[C@H](Cc3ccccc3)CN(O)C=O)oc12`, the IC50 in [1] was 160 nM; in series [2], 4000 nM.
Turning to `CCCCC[C@H](CN(O)C=O)C(=O)NCNC(=O)c1ccc(-c2cccc(OC)c2)o1`, the IC50 in series [1] came to 20 nM.
As for `CCCCC[C@@H](C(=O)NCNC(=O)c1cc2cccc(OC)c2o1)[C@H](CC)N(O)C=O`, the concentration for half-maximal inhibition (IC50) in [1] is greater than 10000 nM; in series [2], 200 nM.
The corresponding values for `CCCCC[C@@H](C(=O)NCNC(=O)c1cc2cccc(OC)c2o1)[C@@H](CC)N(O)C=O` are 126 nM and greater than 10000 nM.
Take `CCCCC[C@H](CN(O)C=O)C(=O)NCNC(=O)c1ccc(-c2ccccc2)o1`: the 50% inhibitory concentration (IC50) in series [1] worked out at 25 nM.
Consider `CCCCC[C@@H](C(=O)NCNC(=O)c1ccc(-c2cc(OCC)cc(C(=O)N[C@@H](CC(=O)O)C(=O)O)c2)o1)[C@@H](CC)N(O)C=O`, for which the concentration for half-maximal inhibition (IC50) in [1] was less than 1 nM.
With `CCCCC[C@@H](C(=O)NCNC(=O)c1ccc(-c2ccc(C(=O)N[C@@H](CC(=O)O)C(=O)O)c(OCC)c2)o1)[C@@H](CC)N(O)C=O`, the IC50 in [1] is less than 1 nM. Besides, the K stood at 5.5e+07 M⁻¹ s⁻¹ in series [3] and 2.3 h⁻¹ in series [4]. Further, the T1/2 in series [5] was 0.3 h. For the same compound, the inhibitory constant (Ki) (usually the dissociation constant of the complex between target and ligand, obtained from inhibition or displacement) in series [6] came out at 0.0068 nM; in [7], 0.031 nM; in [8], 0.039 nM. The MRT in series [9] and in series [10] was greater than 2 h each time. In addition, the AUC/dose in series [11] was determined as 0.27 kg·h/L; in series [12] it was 0.85 kg·h/L.
For `CCCCC[C@H](CN(O)C=O)C(=O)NCNC(=O)c1ccc(-c2ccc(C(=O)O)cc2)o1`, the IC50 in [1] was 1 nM.
`CCCCC[C@@H](C(=O)NCNC(=O)c1ccc(-c2cc(OCC)cc(P(=O)(O)O)c2)o1)[C@@H](CC)N(O)C=O`: in series [1], the IC50 was less than 1 nM. Besides, the figures for the K in series [3] and in series [4] were 3.6e+06 M⁻¹ s⁻¹ and 0.93 h⁻¹, respectively. Also, in series [5], the T1/2 was determined as 0.75 h. For the same compound, the inhibition constant (Ki) came out at 0.04 nM in series [6], 0.24 nM in [7] and 0.26 nM in series [8]. In addition, the MRT in series [9] and in series [10] was greater than 2 h each time. In addition, the AUC/dose in series [11] is 2.3 kg·h/L; in [12], 5 kg·h/L.
As to `CCCCC[C@@H](CN(O)C=O)C(=O)NCNC(=O)c1cc2cccc(OC)c2o1`, the IC50 is 4000 nM in [1] and greater than 10000 nM in series [2].
In the case of `CCCCC[C@@H](C(=O)NCNC(=O)c1ccc(-c2ccc(P(=O)(O)O)c(OCC)c2)o1)[C@@H](CC)N(O)C=O`, the IC50 in series [1] is less than 1 nM.
With `CCC[C@H](CN(O)C=O)C(=O)NCNC(=O)c1cc2cccc(OC)c2o1`, the half-inhibitory concentration (IC50) in series [1] and in [2] was 1250 nM throughout.
